# Measurements from US6495356B1, “Beryllofluoride analogues of acyl phosphate polypeptides” (priority 1999, dated 2002).
# B1: BeFx.OmpR: beryllofluoride complex of E. coli response regulator OmpR (protein, UniProt P0AA16 1-239, looked up)
# DNA-binding dual …: MQENYKILVVDDDMRLRALLERYLTEQGFQVRSVANAEQMDRLLTRESFHLMVLDLMLPGEDGLSICRRLRSQSNPMPIIMVTAKGEEVDRIVGLEIGADDYIPKPFNPRELLARIRAVLRRQANELPGAPSQEEAVIAFGKFKLNLGTREMFREDEPMPLTSGEFAVLKALVSHPREPLSRDKLMNLARGREYSAMERSIDVQISRLRRMVEEDPAHPRYIQTVWGLGYVFVPDGSKA
# modifications: beryllofluoride complex
# B2: BeFx.CheY: beryllofluoride acyl phosphate analogue of E. coli response regulator CheY (protein, UniProt P0AE67 2-129, looked up)
# Chemotaxis protein CheY: ADKELKFLVVDDFSTMRRIVRNLLKELGFNNVEEAEDGVDALNKLQAGGYGFVISDWNMPNMDGLELLKTIRADGAMSALPVLMVTAEAKKENIIAAAQAGASGYVVKPFTAATLEEKLNKIFEKLGM
# modifications: beryllofluoride complex
# B3: CheY: E. coli CheY, central regulator of the chemotactic response, unmodified inactive form (protein, UniProt P0AE67 2-129, looked up)
# Chemotaxis protein CheY: B2 Chemotaxis protein CheY
# Tests used:
# NtrC^D86N,S160F = target: T1, NtrC^D86N,S160F (Salmonella typhimurium, UniProt P41789, C30V/C364A/D86N/S160F); assay type: biochemical; details: for Effect of single component on ATPase activity of NtrC^D86N,S160F: trace amounts of BeCl2 alone, high concentrations of NaF in absence of BeCl2
# T1 construct: made in house
# [1] = target: T2, phosphoserine phosphatase (PSP) (Methanocaldococcus jannaschii, UniProt Q58989); experiment: Inhibition of hydrolytic activity of PSP; assay type: biochemical, Methanococcus jannaschii; details: for Inhibition of hydrolytic activity of PSP: analog generated in situ (NaF plus BeCl2 or AlCl3); for Effect of single component on PSP activity: NaF alone or BeCl2 alone
# T2 construct: made in house
# NtrC^WT [2] = target: T3, NtrC^WT (Salmonella typhimurium, UniProt P41789, C30V/C364A); assay type: biochemical; details: for Stimulation of the ATPase activity of NtrC^WT: BeCl2 200 μM, AlCl3 200 μM, NaF 5 mM, VO4^3− 1 mM, compared with carbamoyl phosphate 10 mM
# T3 construct: made in house
# Experimental: NtrC proteins. […] All full-length NtrC proteins (dimer concentration) were maltose binding protein fusions to NtrC lacking its two natural cysteines (MBP-NtrC^C30V,C364A) or its derivatives.
# Assays. […] Mol. Biol. 249, 700-713). Prior to addition of ATP, other components were incubated for 30 min at 25° C. together with the indicated small molecule or combination of small molecules (carbamoyl phosphate, 10 mM; BeCl2, 200 μM; AlCl3, 200 μM; NaF, 5 mM; VO4^3−, 1 mM). The response of the ATPase activity of NtrC to the concentration of NaF or BeCl2 was assessed essentially as above, except the reaction time was 10 min.
# [3] = tested on: control region for the fdnG operon; experiment: DNase I footprinting of NarL DNA-binding; set-up: species or system E. coli
# NtrC^WT [4] = target: T3, NtrC^WT; experiment: Formation of open complexes, single-cycle transcription assay; assay type: biochemical; details: ≦100 μM BeFx vs 10 mM carbamoyl phosphate
# Experimental: Formation of open complexes was assessed in a single-cycle transcription assay on a supercoiled plasmid template pJES534 (1 nM) (Porter et al. (1993) Genes Dev. 7, 2258-2273; Flashner et al. (1995) J. Mol. Biol. 249, 700-713). NtrC was incubated with 100 μM BeCl2 plus 10 mM NaF or 10 mM carbamoyl phosphate, respectively, at 37° C. for 10 min prior to initiation of the reaction with ATP.
# (§1) Transcriptional activation of NtrC was assessed as described in Flashner et al. (1995) J. Mol. Biol. 249, 700-713. DNA-binding of OmpR was assessed as described in Huang and Igo (1996) J. Mol. Biol. 262, 615-628. DNA-binding of NarL was assessed as described in Li et al. (1994) J. Mol. Biol. 241, 150-165 and Darwin et al. (1997) Mol. Microbiol 25, 583-595.
# [5] = tested on: mutant forms of NtrC in which D54 has been replaced by A or N; experiment: ATPase activity of NtrC D54 mutants; assay type: biochemical, Salmonella typhimurium; details: data not shown
# NtrC^D86C,Fe = target: T4, NtrC^D86C,Fe (Salmonella typhimurium, UniProt P41789, C30V/C364A/D86C); experiment: Fe-mediated cleavage of NtrC^D86C,Fe; assay type: biochemical; details: BeCl2 200 μM, NaF 10 mM; divalent cation required
# T4 construct: made in house
# Experimental: Fe-mediated cleavage of NtrC was assessed as follows: NtrC (5 to 10 μM) was incubated for 30 min at 25° C. with the indicated small molecule or combination of small molecules (carbamoyl phosphate, 10 mM; BeCl2, 200 μM; NaF, 10 mM) in cleavage buffer (10 mM MOPS, pH 8.0, 50 mM KCl, 8 mM MgCl2, 5% glycerol, 1 mM EDTA). Then cleavage was initiated by adding H2O2 and sodium ascorbate to final concentrations of 50 mM and samples were subjected to analysis by SDS-PAGE as described (Greiner etal. (1997) Bioconjugate Chem. 8, 44-48).
# We have two direct lines of evidence that BeFx mimics effects of phosphorylation of NtrC structurally as well as functionally. […] Rearrangement at the dimer interface of P-NtrC is postulated to drive the formation of active oligomers. […] By contrast, the BeFx-dependent cleavage did require a divalent cation, and either Mg^2+ or Mn^2+ could serve (FIG. 3B). Thus, like phosphorylation (Parkinson and Kofoid (1992) Annu. Rev. Genet. 26, 71-112; Stock et al. (1995) in Two-component signal transduction, eds. Hoch and Silhavy (ASM, Washington, D.C.), pp. 25-51; Lukat et al. (1992) Proc. Natl. Acad. Sci. USA 89, 718-722; Feng et al. (1992) J. Bacteriol. 174, 6061-6070), the interaction between BeFx and D54 of NtrC requires a divalent cation. […]
# [6] = tested on: ompF promoter-regulatory region; experiment: DNase I footprinting of OmpR binding; set-up: species or system E. coli; details: compared with P-OmpR (EnvZ or acetyl phosphate); NaF 10 mM, BeCl2 100 μM
# Experimental: Binding of BeFx.OmpR to the ompF promoter-regulatory region was assessed by DNase I footprinting as described in Huang and Igo (1996) J. Mol. Biol. 262, 615-628 and was compared to that of P-OmpR. The concentrations of OmpR were: 6.4 μM (lanes 1, 6, 11 and 16); 1.6 μM (lanes 2, 7, 12 and 17); 0.4 μM (lanes 3, 8, 13 and 18); 0.1 μM (lanes, 4, 9, 14 and 19); and 0 μM (lanes 5, 10, 15 and 20). For samples in lanes 6-10, OmpR was phosphorylated by MBP-EnvZ (0.3 μM) as described (Huang and Igo (1996) J. Mol. Biol. 262, 615-628). For samples in lanes 11-20, NaF (10 mM) was present and for those in lanes 16-20, BeCl2 (100 μM) was also present. Non-specific DNA-binding observed in the presence of BeCl2 and NaF in lanes 16 and 17 was not observed when OmpR was phosphorylated by EnvZ (lanes 6 and 7) unless much higher concentrations of OmpR were used (see FIG. 4).
# as §1
# [7] = target: FliM peptide (residues 1-16); experiment: FliM peptide binding of CheY (tryptophan fluorescence quenching); set-up: species or system E. coli; details: CheY 10 μM; ± 2 mM BeCl2, 20 mM NaF, 20 mM MgCl2; read-out: Dissociation constant for binding to the FliM peptide
# Experimental: FliM peptide binding of CheY was assessed as described in McEvoy et al. (1999) J. Mol. Biol. 289, 1423-1433. Fluorescence intensity of CheY (10 μM) at 340 nm was measured as a function of added FliM peptide in the absence or presence of 2 mM BeCl2, 20 mM NaF and 20 mM MgCl2.
# There is no direct in vitro assay for the activity of P-CheY in reversing the direction of flagellar rotation. […] The strength of this binding, which was assessed by quenching of the intrinsic tryptophan fluorescence of CheY, was recently reported to be phosphorylation-dependent (McEvoy et al. (1999) J. Mol. Biol. 289, 1423-1433). […] By this criterion, BeFx.CheY is as active as P-CheY. Like BeFx.CheY, a phosphonate derivative of CheY^D57C appears to be a biochemical analogue of P-CheY, but it is difficult to prepare (Halkides et al. (1998) Biochemistry 37, 13674-13680). Such analogues are extremely useful because the acyl phosphate linkage of P-CheY is exceptionally labile (half life of seconds) (Parkinson and Kofoid (1992) Annu. Rev. Genet. 26, 71-112; Stock et al. (1995) in Two-component signal transduction, eds. Hoch and Silhavy (ASM, Washington, D.C.), pp. 25-51).
molecule,measurement,setting,value
aluminofluoride [AlFx],"Stimulation of the ATPase activity of unphosphorylated NtrC^D86N,S160F","NtrC^D86N,S160F",but not Alfx
same,Inhibition of hydrolytic activity of PSP,[1],can substitute for BeF3^− to inhibit PSP activity
same,Stimulation of the ATPase activity of NtrC^WT,NtrC^WT [2],neither AlFx nor VO4^3− could substitute
BeFx.NarL: beryllofluoride complex of E. coli response regulator NarL,Activity relative to P-NarL,"[3]; 200 μM BeCl2, 10 mM NaF and 5 mM MgCl2",less active
same,Binding to the control region for the fdnG operon,"[3]; compared with P-NarL, data not shown",bound similarly
ADP.BeFx,"Inhibition of the ATPase activity of NtrC^D86N,S160F","NtrC^D86N,S160F; ADP complexes of phosphate analogs",neither ADP.BeFx nor ADP.AlFx nor ADP.VO4^3− appeared to inhibit
"[O]=[V]([O-])([O-])[O-] [VO4^3−, orthovanadate]",Inhibition of hydrolytic activity of PSP,[1],observed to inhibit PSP activity
same,Stimulation of the ATPase activity of NtrC^WT,NtrC^WT [2],neither AlFx nor VO4^3− could substitute
[Be+2].[Cl-].[Cl-] [BeCl2],"Effect of single component on ATPase activity of NtrC^D86N,S160F","NtrC^D86N,S160F",inhibited
same,Effect of single component on PSP activity,[1],Neither alone had such a profound effect
same,BeCl2 concentration at which inhibition of ATPase activity occurred,NtrC^WT [2]; 5 mM NaF,≥ 200 µM
same,BeCl2 concentration at which ATPase activity was detected (lowest tested),"NtrC^WT [2]; 5 mM NaF, NtrC^WT 0.4 μM dimer",5 µM
same,BeCl2 concentration giving highest ATPase activity,"NtrC^WT [2]; 5 mM NaF, NtrC^WT 0.4 μM dimer",100 µM
[F-].[Na+] [NaF],"Effect of single component on ATPase activity of NtrC^D86N,S160F","NtrC^D86N,S160F",inhibited
same,Effect of single component on PSP activity,[1],Neither alone had such a profound effect
same,NaF concentration at which inhibition of ATPase activity occurred,NtrC^WT [2]; 50 μM BeCl2,≥ 50 mM
same,NaF concentration below which no ATPase activity was observed,NtrC^WT [2]; 50 μM BeCl2,1 mM
beryllofluoride [BeFx],"Stimulation of the ATPase activity of unphosphorylated NtrC^D86N,S160F","NtrC^D86N,S160F",substantially stimulated
same,Inhibition of PSP activity at different temperatures,"[1]; 70° C. or room temperature, data not shown",similarly inhibited
same,Inhibition of hydrolytic activity of PSP,[1],significantly inhibited
same,Stimulation of the ATPase activity of NtrC^WT,NtrC^WT [2],as effective as carbamoyl phosphate
same,Activation of transcription by σ54-holoenzyme (open complexes),NtrC^WT [4],at least as great as that of the phosphorylated protein
same,Stimulation of ATPase activity of D54A / D54N NtrC,[5],failure of BeFx to stimulate
same,Phosphorylation-dependent Fe-mediated cleavage,"NtrC^D86C,Fe",yields an otherwise phosphorylation-dependent cleavage
B1,Binding to regulatory region upstream of the ompF promoter,[6],better than P-OmpR
B2,Kd,[7],26 µM
B3,Kd,[7],500 µM
